Source: PMC11672292, “Discovery of Balasubramide Derivative with Tissue‐Specific Anti‐Inflammatory Activity Against Acute Lung Injury by Targeting VDAC1” (Advanced Science, 2024)

What was measured:
PBMCs from ALI patients = test: Cytosolic mtDNA release in LPS-stimulated PBMCs from ALI patients; format: cell-based, human; conditions: 10 µM
Procedure: PBMCs isolation and stimulation were performed as previously described.^[ [40], [66] ^] Anticoagulated whole blood diluted equally with PBS was added to a 15 mL sterile centrifuge tube containing lymphocyte separation solution (#C0025, Beyotime, China), and centrifuged for 10 min at 2500 rpm. The layer of PBMCs at the plasma‐density gradient medium interface was transferred to a new sterile tube, dispersed with 10 mL DMEM, and centrifuged for 5 min at 800 rpm. The mononuclear cells at the bottom of the tube were resuspended in DMEM with 10% FBS at 5 × 10^5 cells/well in 24‐well plates. After discarding the supernatant, the PBMCs were incubated with DMSO or 10 µM (+)3C‐20 for 3 h in DMEM, stimulated with 100 ng mL^−1 LPS for another 3 h, and lysed with TRIzol reagent for total RNA extraction and following indicated experiments.

sepsis-induced ALI mice = test: Sepsis-induced acute lung injury (ALI) model (i.p. LPS); format: in vivo, mouse
Procedure: For sepsis‐induced ALI model, C57BL/6J mice were randomly divided into five experimental groups (n = 8–9) according to weight, including control group (PBS+Vehicle), vehicle group (LPS+Vehicle), Dexamethasone treated group (LPS+DEX at 5 mg kg^−1), (+)3C‐20 treated group (LPS+3C‐20 at 10 mg kg^−1 or 50 mg kg^−1). All mice were weighed and intraperitoneally administered DEX, (+)3C‐20 (dissolved in vehicle solution) or vehicle (5% DMSO, 20% BASF Kolliphor HS15, 75% Saline) daily for 3 consecutive days with the determined injection volume (10 mL kg^−1). After the third administration, except for the control group, mice were intraperitoneally injected with LPS (10 mg kg^−1, 10 mL kg^−1) dissolved in PBS 2 h after vehicle or compound pretreatment. […]
After mice were sacrificed, the left lung tissue fixed with 4% paraformaldehyde was embedded in paraffin, cut into 5 µm thick sections, and stained with hematoxylin and eosin. The slices were scanned with light microscopy (BX53, Olympus, Japan) to evaluate gross morphology and lung damage and inflammation, then the alveolar cells area of the image obtained was calculated with Image J 1.51 (NIH, USA), and the histopathological lung injury scores were determined as previously reported.^[ [62] ^]

## O=C(CCc1ccc(C(F)(F)F)cc1)O[C@@H]1C(=O)NCCc2c([nH]c3ccccc23)[C@H]1c1ccc(C(F)(F)F)cc1 [(+)3C-20]
PBMCs from ALI patients
  cytosolic mtDNA release: markedly reduced
sepsis-induced ALI mice; i.p. 10 or 50 mg kg^−1, 3 days pretreatment, LPS 10 mg kg^−1 i.p.
  secretion of TNF-α in serum: dose‐dependently decreased
sepsis-induced ALI mice; pretreated at 10 or 50 mg kg^−1, versus vehicle group
  histopathological damage of lung (H&E): less histopathological damage
